Experimental data as given in ChEMBL document CHEMBL1201862, “PubChem BioAssay data set” (2004).
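Cultured in 96-well plates, cells were exposed to test compound for 48 hours across five concentrations. At the GI50, growth is halved.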 The source made the active and inactive calls. Rule as the data show it: active = GI50 up to about 1.1 µM and inactive = higher.

Legend:
Test in all cases: growth of human tumour cells (NCI), 48 h
SNB-75 = system: SNB-75
TK-10 = system: TK-10
MDA-MB-435 = system: MDA-MB-435
EKVX = system: EKVX
UACC-257 = system: UACC-257
SW-620 = system: SW-620
Malme-3M = system: Malme-3M
HCC 2998 = system: HCC 2998
DU-145 = system: DU-145
MCF7 = system: MCF7
IGROV-1 = system: IGROV-1
MDA-N = system: MDA-N
SK-OV-3 = system: SK-OV-3
SN12C = system: SN12C
CCRF-CEM = system: CCRF-CEM
ACHN = system: ACHN
HL-60 = system: HL-60
SK-MEL-5 = system: SK-MEL-5
RXF 393 = system: RXF 393
BT-549 = system: BT-549
SF-268 = system: SF-268
RPMI-8226 = system: RPMI-8226
SNB-19 = system: SNB-19
MDA-MB-231 = system: MDA-MB-231
CAKI-1 = system: CAKI-1
MOLT-4 = system: MOLT-4
T47D = system: T47D
HCT-15 = system: HCT-15
UACC-62 = system: UACC-62
A498 = system: A498
HCT-116 = system: HCT-116
UO-31 = system: UO-31
NCI-H460 = system: NCI-H460
NCI/ADR-RES = system: NCI/ADR-RES
PC-3 = system: PC-3
SK-MEL-28 = system: SK-MEL-28
A549 = system: A549
COLO 205 = system: COLO 205
OVCAR-3 = system: OVCAR-3
OVCAR-8 = system: OVCAR-8
786-0 = system: 786-0
HT-29 = system: HT-29
KM12 = system: KM12
M14 = system: M14
SK-MEL-2 = system: SK-MEL-2
SR = system: SR
OVCAR-5 = system: OVCAR-5
K562 = system: K562
HOP-62 = system: HOP-62
U-251 = system: U-251
SF-539 = system: SF-539
SF-295 = system: SF-295
OVCAR-4 = system: OVCAR-4
NCI-H226 = system: NCI-H226
NCI-H23 = system: NCI-H23
LOX IMVI = system: LOX IMVI
HOP-92 = system: HOP-92
Hs-578T = system: Hs-578T
NCI-H522 = system: NCI-H522

O=C1N[C@H]2c3c(Cl)sc(Cl)c3/C(=N/O)[C@H]2O1
GI50 (SNB-75): > 100 µM (inactive)
GI50 (TK-10): > 100 µM (inactive)
GI50 (MDA-MB-435): > 100 µM (inactive)
GI50 (EKVX): > 100 µM (inactive)
GI50 (UACC-257): > 100 µM (inactive)
GI50 (SW-620): > 100 µM (inactive)
GI50 (Malme-3M): > 100 µM (inactive)
GI50 (HCC 2998): > 100 µM (inactive)
GI50 (DU-145): > 100 µM (inactive)
GI50 (MCF7): > 100 µM (inactive)
GI50 (IGROV-1): 72.3 µM (inactive)
GI50 (MDA-N): > 100 µM (inactive)
GI50 (SK-OV-3): > 100 µM (inactive)
GI50 (SN12C): > 100 µM (inactive)
GI50 (CCRF-CEM): 52.2 µM (inactive)
GI50 (ACHN): > 100 µM (inactive)
GI50 (HL-60): 18.7 µM (inactive)
GI50 (SK-MEL-5): > 100 µM (inactive)
GI50 (RXF 393): > 100 µM (inactive)
GI50 (BT-549): > 100 µM (inactive)
GI50 (SF-268): > 100 µM (inactive)
GI50 (RPMI-8226): > 100 µM (inactive)
GI50 (SNB-19): > 100 µM (inactive)
GI50 (MDA-MB-231): > 100 µM (inactive)
GI50 (CAKI-1): > 100 µM (inactive)
GI50 (MOLT-4): > 100 µM (inactive)
GI50 (T47D): > 100 µM (inactive)
GI50 (HCT-15): 67.9 µM
GI50 (UACC-62): > 100 µM (inactive)
GI50 (A498): > 100 µM (inactive)
GI50 (HCT-116): 80.7 µM (inactive)
GI50 (UO-31): > 100 µM (inactive)
GI50 (NCI-H460): 76.4 µM (inactive)
GI50 (NCI/ADR-RES): > 100 µM (inactive)
GI50 (PC-3): > 100 µM (inactive)
GI50 (SK-MEL-28): > 100 µM (inactive)
GI50 (A549): > 100 µM (inactive)
GI50 (COLO 205): > 100 µM (inactive)
GI50 (OVCAR-3): > 100 µM (inactive)
GI50 (OVCAR-8): > 100 µM (inactive)
GI50 (786-0): > 100 µM (inactive)
GI50 (HT-29): > 100 µM (inactive)
GI50 (KM12): > 100 µM (inactive)
GI50 (M14): > 100 µM (inactive)
GI50 (SK-MEL-2): > 100 µM (inactive)
GI50 (SR): > 100 µM (inactive)
GI50 (OVCAR-5): > 100 µM (inactive)
GI50 (K562): 75.3 µM (inactive)
GI50 (HOP-62): > 100 µM (inactive)
GI50 (U-251): > 100 µM (inactive)
GI50 (SF-539): 88.1 µM (inactive)

CC(=O)OCC1OC(SC2OC(COC(C)=O)C(OC(C)=O)C(OC(C)=O)C2OC(C)=O)C(OC(C)=O)C(OC(C)=O)C1OC(C)=O (centres undefined)
GI50 (SNB-75): > 100 µM (inactive)
GI50 (TK-10): > 100 µM (inactive)
GI50 (MDA-MB-435): > 100 µM (inactive)
GI50 (EKVX): > 100 µM (inactive)
GI50 (UACC-257): > 100 µM (inactive)
GI50 (SW-620): > 100 µM (inactive)
GI50 (SF-295): > 100 µM (inactive)
GI50 (Malme-3M): > 100 µM (inactive)
GI50 (HCC 2998): > 100 µM (inactive)
GI50 (DU-145): > 100 µM (inactive)
GI50 (MCF7): > 100 µM (inactive)
GI50 (OVCAR-4): > 100 µM (inactive)
GI50 (IGROV-1): > 100 µM (inactive)
GI50 (MDA-N): > 100 µM (inactive)
GI50 (SK-OV-3): > 100 µM (inactive)
GI50 (SN12C): > 100 µM (inactive)
GI50 (NCI-H226): > 100 µM (inactive)
GI50 (CCRF-CEM): > 100 µM (inactive)
GI50 (ACHN): 52.5 µM (inactive)
GI50 (HL-60): > 100 µM (inactive)
GI50 (SK-MEL-5): > 100 µM (inactive)
GI50 (RXF 393): > 100 µM (inactive)
GI50 (BT-549): > 100 µM (inactive)
GI50 (SF-268): > 100 µM (inactive)
GI50 (RPMI-8226): > 100 µM (inactive)
GI50 (SNB-19): > 100 µM (inactive)
GI50 (MDA-MB-231): > 100 µM (inactive)
GI50 (CAKI-1): > 100 µM (inactive)
GI50 (MOLT-4): > 100 µM (inactive)
GI50 (T47D): > 100 µM (inactive)
GI50 (HCT-15): > 100 µM
GI50 (UACC-62): > 100 µM (inactive)
GI50 (A498): 54.1 µM (inactive)
GI50 (HCT-116): > 100 µM (inactive)
GI50 (UO-31): > 100 µM (inactive)
GI50 (NCI-H460): > 100 µM (inactive)
GI50 (NCI/ADR-RES): > 100 µM (inactive)
GI50 (SK-MEL-28): > 100 µM (inactive)
GI50 (A549): > 100 µM (inactive)
GI50 (COLO 205): > 100 µM (inactive)
GI50 (OVCAR-3): > 100 µM (inactive)
GI50 (OVCAR-8): > 100 µM (inactive)
GI50 (786-0): > 100 µM (inactive)
GI50 (HT-29): > 100 µM (inactive)
GI50 (KM12): > 100 µM (inactive)
GI50 (NCI-H23): > 100 µM (inactive)
GI50 (SR): > 100 µM (inactive)
GI50 (OVCAR-5): > 100 µM (inactive)
GI50 (K562): > 100 µM (inactive)
GI50 (HOP-62): > 100 µM (inactive)
GI50 (LOX IMVI): > 100 µM (inactive)
GI50 (U-251): > 100 µM (inactive)
GI50 (SF-539): > 100 µM (inactive)

CC(C)(C)OC(=O)N1CCC(NC(=O)NC2CCN(C(=O)OC(C)(C)C)CC2)CC1
GI50 (SNB-75): > 100 µM (inactive)
GI50 (TK-10): > 100 µM (inactive)
GI50 (MDA-MB-435): > 100 µM (inactive)
GI50 (HOP-92): > 100 µM (inactive)
GI50 (EKVX): > 100 µM (inactive)
GI50 (UACC-257): > 100 µM (inactive)
GI50 (SW-620): > 100 µM (inactive)
GI50 (SF-295): > 100 µM (inactive)
GI50 (Malme-3M): > 100 µM (inactive)
GI50 (HCC 2998): > 100 µM (inactive)
GI50 (MCF7): > 100 µM (inactive)
GI50 (Hs-578T): > 100 µM (inactive)
GI50 (OVCAR-4): > 100 µM (inactive)
GI50 (IGROV-1): > 100 µM (inactive)
GI50 (MDA-N): > 100 µM (inactive)
GI50 (SN12C): > 100 µM (inactive)
GI50 (NCI-H522): > 100 µM (inactive)
GI50 (CCRF-CEM): > 100 µM (inactive)
GI50 (ACHN): > 100 µM (inactive)
GI50 (HL-60): > 100 µM (inactive)
GI50 (BT-549): 0.118 µM (active)
GI50 (SF-268): > 100 µM (inactive)
GI50 (RPMI-8226): > 100 µM (inactive)
GI50 (SNB-19): > 100 µM (inactive)
GI50 (MDA-MB-231): > 100 µM (inactive)
GI50 (CAKI-1): > 100 µM (inactive)
GI50 (HCT-15): > 100 µM
GI50 (UACC-62): > 100 µM (inactive)
GI50 (A498): > 100 µM (inactive)
GI50 (HCT-116): > 100 µM (inactive)
GI50 (UO-31): > 100 µM (inactive)
GI50 (NCI-H460): > 100 µM (inactive)
GI50 (NCI/ADR-RES): > 100 µM (inactive)
GI50 (PC-3): > 100 µM (inactive)
GI50 (SK-MEL-28): > 100 µM (inactive)
GI50 (A549): > 100 µM (inactive)
GI50 (OVCAR-3): > 100 µM (inactive)
GI50 (OVCAR-8): > 100 µM (inactive)
GI50 (786-0): > 100 µM (inactive)
GI50 (HT-29): > 100 µM (inactive)
GI50 (KM12): > 100 µM (inactive)
GI50 (M14): > 100 µM (inactive)
GI50 (NCI-H23): > 100 µM (inactive)
GI50 (SK-MEL-2): > 100 µM (inactive)
GI50 (SR): > 100 µM (inactive)
GI50 (OVCAR-5): > 100 µM (inactive)
GI50 (HOP-62): > 100 µM (inactive)
GI50 (LOX IMVI): > 100 µM (inactive)
GI50 (U-251): > 100 µM (inactive)
GI50 (SF-539): > 100 µM (inactive)
